Patent US9096591B2, “Tetracyclic compounds” (Medivation Technologies, Inc., priority 2007, dated 2015)
Several values for one entry are separate records, joined by “and”; a condition that tells them apart may be missing. Equal entries are not always repeated. Where two headings read alike, the source gives them in different places.

Assays:
[1] = target: T1, human recombinant histamine H2 receptor (Homo sapiens, UniProt P25021); assay: Histamine H2 radioligand binding ([125I]Aminopotentidine)
T1 construct: expressed in transfected cells; host or cells: CHO-K1 cells
Description: Non-specific binding was estimated in the presence of 3 μM Tiotidine. […] Biochemical assay results are presented as the percent inhibition of specific binding in Table 5.
Non-specific binding was estimated in the presence of 3 μM Tiotidine. […] Compounds were screened at 1 μM, using 1% DMSO as vehicle. Biochemical assay results are presented as the percent inhibition of specific binding in Table 6.

[2] = target: T2, human recombinant histamine H1 receptor (Homo sapiens, UniProt P35367); assay: Histamine H1 radioligand binding ([3H]Pyrilamine)
T2 construct: expressed in transfected cells; host or cells: CHO cells
Description: To evaluate in radioligand binding assays the activity of compounds of the invention, human recombinant histamine H1 receptor expressed in Chinese hamster ovary (CHO) cells (De Backer M D et al. Biochem. Biophys. Res Comm. 197(3):1601, 1993) in a modified Tris-HCl buffer (50 mM Tris-HCl, pH 7.4, 2 mM MgCl2, 100 mM NaCl, 250 mM Sucrose) were used. […] Non-specific binding was estimated in the presence of 1 μM pyrilamine. Receptor proteins were filtered and washed, the filters were then counted to determine [^3H]pyrilamine specifically bound. […] Biochemical assay results are presented as the percent inhibition of specific binding in Table 5.
To evaluate in radioligand binding assays the activity of compounds of the invention, human recombinant histamine H1 receptor expressed in Chinese hamster ovary (CHO) cells (De Backer, M. D. et al., Biochem. Biophys. Res. Comm. 197(3):1601, 1993) in a modified Tris-HCl buffer (50 mM Tris-HCl, pH 7.4, 2 mM MgCl2, 100 mM NaCl, 250 mM Sucrose) was used. […] Non-specific binding was estimated in the presence of 1 μM pyrilamine. Receptor proteins were filtered and washed, the filters were then counted to determine [^3H]Pyrilamine specifically bound. Compounds were screened at 1 μM, using 1% DMSO as vehicle. Biochemical assay results are presented as the percent inhibition of specific binding in Table 6.

mice = assay: recognition test of new location of a known object (spatial memory); format: in vivo; settings: for time exploring the object in a new location, % of the total time / time exploring the object in the known position, % of the total time / effect of the dose on exploration time / memory (in words) / overall effect on memory (in words): mice; for overall effect on memory (in words): doses 0.05-1 mg/kg
[3] = system: synaptosomes of cortex of rat brain; assay: Glutamate-induced 45Ca2+ uptake into synaptosomes; format: biochemical, Wistar rats; settings: for % Ca of control (control-100%), glutamate-induced 45Ca2+ uptake into synaptosomes: rat cortex synaptosomes
Description: Synaptosomes were obtained from cerebral cortex of newborn (9-10 days) Wistar rats using standard Hajos method. The brain was homogenized with 10 volumes of cooled 0.32 M sucrose at 900 rpm. The homogenate was centrifuged at 1500 g for 10 min. and the resulted supernatant was centrifuged at 10000 g for 20 min. The radioactive label was accumulated by suspension of the synaptosomal P2-fraction in the incubation buffer A having the following composition: 132 mM NaCl, 5 mM KCl, 5 mM HEPES, 10 mM glucose, pH 7.4 (protein concentration of approximately 1.5-2 mg/ml). The mixture was further incubated for 5 min with 200 μM glutamate at 37° C. and then ^45Ca^2+ uptake was stopped by filtration through GF/B filters (Whatman, England) followed by three washes with cold buffer B (145 mM KCl, 10 mM Tris, 5.4 mM Trilon B, pH 7.4). The radioactivity probes were analyzed by fluid scintillation beta-analyzer (TriCarb, Perkin Elmer). All tests were performed in three parallel trials in 2-3 independent experiments. The amount of ^45Ca^2+ uptake was estimated by calculating the difference of radioactive label during the stimulation with glutamate and without the stimulation with agonist.
Specific ^45Ca^2+ uptake was estimated using the following equation: K(43/21)=[(Ca4−Ca3)/(Ca2−Ca1)]100%, where
Ca1—^45Ca^2+ uptake for the Control (without glutamate and the compound tested),
[…] glutamate-induced ^45Ca^2+ uptake (glutamate only),
Ca3—^45Ca^2+ uptake in the presence of the compound tested (without glutamate),
Ca4—^45Ca^2+ uptake in the presence of glutamate and the testing compound.
Statistical analysis of the results was performed using Student's t-test.

[4] = 1 μM compound, 0.1 nM [125I]Aminopotentidine, read-out: Histamine Binding H2, percent inhibition of specific binding
[5] = 1 μM compound, […] [3H]Pyrilamine, read-out: Histamine Binding H1, percent inhibition of specific binding

T1 sequence (P25021 whole entry): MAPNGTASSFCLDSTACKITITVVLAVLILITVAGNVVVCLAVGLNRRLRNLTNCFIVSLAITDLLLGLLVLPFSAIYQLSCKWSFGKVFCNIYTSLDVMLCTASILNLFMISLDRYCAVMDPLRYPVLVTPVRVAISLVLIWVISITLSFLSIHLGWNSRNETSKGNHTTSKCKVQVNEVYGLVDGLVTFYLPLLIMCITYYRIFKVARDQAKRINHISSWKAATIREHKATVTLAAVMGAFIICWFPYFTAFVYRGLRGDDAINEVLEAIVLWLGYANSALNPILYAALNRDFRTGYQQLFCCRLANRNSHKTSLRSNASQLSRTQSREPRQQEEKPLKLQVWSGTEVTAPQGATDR
T2 sequence (P35367 whole entry): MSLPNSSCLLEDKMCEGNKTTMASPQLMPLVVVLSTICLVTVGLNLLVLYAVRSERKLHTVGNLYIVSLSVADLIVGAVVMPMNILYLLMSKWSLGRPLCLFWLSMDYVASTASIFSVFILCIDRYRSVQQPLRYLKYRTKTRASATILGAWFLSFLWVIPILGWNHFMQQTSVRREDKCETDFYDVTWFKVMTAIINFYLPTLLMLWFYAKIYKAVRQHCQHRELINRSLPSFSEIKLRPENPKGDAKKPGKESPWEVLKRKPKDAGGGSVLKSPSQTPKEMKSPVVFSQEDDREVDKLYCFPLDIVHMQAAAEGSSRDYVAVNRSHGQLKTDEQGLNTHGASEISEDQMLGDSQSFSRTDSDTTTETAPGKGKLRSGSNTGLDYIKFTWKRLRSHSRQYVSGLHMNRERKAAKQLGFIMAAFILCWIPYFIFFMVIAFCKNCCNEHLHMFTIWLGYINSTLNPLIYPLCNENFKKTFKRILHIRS

CN1CCc2c(c3cc(Cl)ccc3n2CCc2n[nH]c(=S)n2C)C1(C)C [Compound 220]
Histamine Binding H2, percent inhibition of specific binding ([1]; 1 μM compound, 0.1 nM [125I]Aminopotentidine): 22%
Histamine Binding H1, percent inhibition of specific binding ([2]; 1 μM compound, […] [3H]Pyrilamine): 3%

FC(F)(F)c1ccc2c(c1)c1c(n2CCc2noc(-c3ccccc3)n2)CCN(C2CC2)C1 [Compound 222]
inhibition at 0.1 µM ([1]; 0.1 μM compound, 0.1 nM [125I]Aminopotentidine, read-out: Histamine Binding H2, percent inhibition of specific binding): 89%
inhibition at 1 µM [1, 4]: 98%
inhibition at 0.01 µM ([2]; 10 nM (0.01 μM) compound, […] [3H]Pyrilamine, read-out: Histamine Binding H1, percent inhibition of specific binding): 85%
inhibition at 0.1 µM ([2]; 0.1 μM compound, […] [3H]Pyrilamine, read-out: Histamine Binding H1, percent inhibition of specific binding): 101%
inhibition at 1 µM [2, 5]: 103%

CN1Cc2c(n(CCc3noc(-c4ccccc4)n3)c3ccc(Cl)cc23)CC12CC2 [Compound 223]
inhibition at 1 µM [1, 4]: 94%
inhibition at 1 µM [2, 5]: 100%

Cc1ccc2c(c1)c1c(n2CCC(=O)N2CCC(NC(=O)OC(C)(C)C)CC2)CCN(C)C1 [Compound 226, tert-butyl 1-(3-(1,2,3,4-tetrahydro-2,8-dimethylpyrido[4,3-b]indol-5-yl)propanoyl)piperidin-4-ylcarbamate]
inhibition at 1 µM [1, 4]: 96%
inhibition at 1 µM [2, 5]: 87%

Cc1ccc2c(c1)c1c(n2CCc2ccc(C(=O)O)nc2)CCN(C)C1=O [Compound 241]
inhibition at 1 µM ([1]; read-out: Histamine Binding H2, percent inhibition of specific binding): 11%
inhibition at 1 µM ([2]; read-out: Histamine Binding H1, percent inhibition of specific binding): 19%

CN1Cc2c(n(CCc3noc(-c4ccc(Cl)cc4)n3)c3ccc(Cl)cc23)CC12CC2 [Compound 242]
inhibition at 1 µM [1, 4]: 87%
inhibition at 1 µM [2, 5]: 94%

CN1CCc2c(c3ccccc3n2CCc2nc(-c3ccccc3)cs2)C1 [Compound C1-1]
Influence on memory in the test recognition new localization of known object (mice; Dose of Compound 0.05 mg/kg): +
Influence on memory in the test recognition new localization of known object (mice; Dose of Compound 0.1 mg/kg): +
Influence on memory in the test recognition new localization of known object (mice; Dose of Compound 0.5 mg/kg): −
Influence on memory in the test recognition new localization of known object (mice; Dose of Compound 1.0 mg/kg): +
activity on memory compared with dimebon (in words) (mice; comparison of effective doses): approximately two times higher
time exploring the object in a new location, % of the total time (mice; dose 0.05 mg/kg): 61.8±8.4%
time exploring the object in the known position, % of the total time (mice; dose 0.05 mg/kg): 38.2±8.4%
time exploring the object in a new location, % of the total time (mice; dose 0.1 mg/kg): 56.0±6.9%
time exploring the object in the known position, % of the total time (mice; dose 0.1 mg/kg): 42.7±6.9%
effect of the dose on exploration time / memory (in words) (mice; dose 0.5 mg/kg): disappearance of the stimulating effect on memory
time exploring the object in a new location, % of the total time (mice; dose 1 mg/kg): 61.5±8.9%
time exploring the object in the known position, % of the total time (mice; dose 1 mg/kg): 37.8±8.9%
overall effect on memory (in words) (mice): stimulating effect on memory
concentration at which glutamate-induced 45Ca2+ uptake into synaptosomes was increased [3]: 50 to 100 µM
inhibition of glutamate-induced 45Ca2+ uptake into synaptosomes ([3]; 0.1-0.5 μM): ~13%
glutamate-induced 45Ca2+ uptake into synaptosomes of rat cortex, % Ca of control (control-100%) ([3]; C 50 μM): 126.9%
% Ca of control (control-100%), glutamate-induced 45Ca2+ uptake into synaptosomes ([3]; compound 0.1 μM): 85.5 ± 5.8%
% Ca of control (control-100%), glutamate-induced 45Ca2+ uptake into synaptosomes ([3]; compound 0.5 μM): 86.9 ± 4.2%
% Ca of control (control-100%), glutamate-induced 45Ca2+ uptake into synaptosomes ([3]; compound 1 μM): 100.3 ± 6.5%
% Ca of control (control-100%), glutamate-induced 45Ca2+ uptake into synaptosomes ([3]; compound 5 μM): 98.8 ± 3.2%
% Ca of control (control-100%), glutamate-induced 45Ca2+ uptake into synaptosomes ([3]; compound 10 μM): 91 ± 11.9%
% Ca of control (control-100%), glutamate-induced 45Ca2+ uptake into synaptosomes ([3]; compound 50 μM): 126.9 ± 4.5%
% Ca of control (control-100%), glutamate-induced 45Ca2+ uptake into synaptosomes ([3]; compound 100 μM): 111.9 ± 11.31%

COc1ccc2c(c1)c1c(n2CCc2noc(-c3ccccc3)n2)CCN(C)C1 [Compound C4-5]
Influence on memory in the test recognition new localization of known object (mice; Dose of Compound 0.05 mg/kg): −
Influence on memory in the test recognition new localization of known object (mice; Dose of Compound 0.1 mg/kg): −
Influence on memory in the test recognition new localization of known object (mice; Dose of Compound 0.5 mg/kg): +
Influence on memory in the test recognition new localization of known object (mice; Dose of Compound 1.0 mg/kg): +
activity on memory: times weaker than dimebon (mice; comparison of effective doses): approximately 10 times
effect of the dose on exploration time / memory (in words) (mice; dose 0.05 mg/kg): not effective
effect of the dose on exploration time / memory (in words) (mice; dose 0.1 mg/kg): not effective
time exploring the object in a new location, % of the total time (mice; dose 0.5 mg/kg): 56.2±7.6%
time exploring the object in the known position, % of the total time (mice; dose 0.5 mg/kg): 43.8±7.6%
time exploring the object in a new location, % of the total time (mice; dose 1 mg/kg): 60.6±8.4%
time exploring the object in the known position, % of the total time (mice; dose 1 mg/kg): 39.4±8.4%
overall effect on memory (in words) (mice): stimulated memory
concentration at which glutamate-induced 45Ca2+ uptake into synaptosomes was inhibited [3]: 1 to 25 µM
inhibition of glutamate-induced 45Ca2+ uptake into synaptosomes ([3]; 10 μM (maximal inhibition)): 40%
glutamate-induced 45Ca2+ uptake into synaptosomes of rat cortex, % Ca of control (control-100%) ([3]; C 0.1 μM): 136.4% and 136.4 ± 11.8%
glutamate-induced 45Ca2+ uptake into synaptosomes of rat cortex, % Ca of control (control-100%) ([3]; C 0.5 μM): 124.6 ± 13.7%
glutamate-induced 45Ca2+ uptake into synaptosomes of rat cortex, % Ca of control (control-100%) ([3]; C 1.0 μM): 99.8 ± 0.1%
glutamate-induced 45Ca2+ uptake into synaptosomes of rat cortex, % Ca of control (control-100%) ([3]; C 5.0 μM): 84.2 ± 0.7%
glutamate-induced 45Ca2+ uptake into synaptosomes of rat cortex, % Ca of control (control-100%) ([3]; C 10 μM): 59.9 ± 0.2%
glutamate-induced 45Ca2+ uptake into synaptosomes of rat cortex, % Ca of control (control-100%) ([3]; C 25 μM): 98.6 ± 9.4%
glutamate-induced 45Ca2+ uptake into synaptosomes of rat cortex, % Ca of control (control-100%) ([3]; C 50 μM): 111.7 ± 11.2%
glutamate-induced 45Ca2+ uptake into synaptosomes of rat cortex, % Ca of control (control-100%) ([3]; C 100 μM): 148.4% and 148.4 ± 7.3%
